Assay results reported in ChEMBL document CHEMBL6109104, “Synthesis and antibacterial evaluations of novel vancomycin analogues targeting bacteria membrane to combat Gram-negative infections” (Eur J Med Chem, 2025).
In brackets after ≈: the same amount, converted by molar mass. Activity calls are given as the source filed them. The calls are words filed in the database; no cut-off is given here.

Columns and labels:
Escherichia coli [1] = experiment: Antibacterial activity against Escherichia coli ATCC35150 incubated for 16 to 18 hrs by muller hinton broth based microplate reader analysis; assay type: functional; settings: time 16-18 hrs
Escherichia coli [2] = experiment: Antibacterial activity against Escherichia coli ATCC25922 incubated for 16 to 18 hrs by muller hinton broth based microplate reader analysis; assay type: functional; settings: time 16-18 hrs
Acinetobacter baumannii [3] = experiment: Antibacterial activity against Acinetobacter baumannii ATCC17978 infected in neutropenic thigh infection Kunming mouse model assessed as reduction in bacterial load in thigh at 20 mg/kg, sc pretreated with bacteria for 2 hrs followed by compound addition and measured after 16 hrs; assay type: functional, organism-based
Acinetobacter baumannii [4] = experiment: Antibacterial activity against Acinetobacter baumannii ATCC19606 incubated for 16 to 18 hrs by muller hinton broth based microplate reader analysis; assay type: functional; settings: time 16-18 hrs
Acinetobacter baumannii [5] = experiment: Antibacterial activity against Acinetobacter baumannii ATCC17978 incubated for 16 to 18 hrs by muller hinton broth based microplate reader analysis; assay type: functional; settings: time 16-18 hrs
Acinetobacter baumannii [6] = experiment: Antibacterial activity against Acinetobacter baumannii ATCC17978 infected in neutropenic thigh infection Kunming mouse model assessed as reduction in bacterial survival at 10 mg/kg, sc pretreated with bacteria for 2 hrs followed by compound addition and measured after 16 hrs; assay type: functional, organism-based
Staphylococcus aureus [7] = experiment: Antibacterial activity against methicillin-resistant Staphylococcus aureus USA300 incubated for 16 to 18 hrs by muller hinton broth based microplate reader analysis; assay type: functional; settings: time 16-18 hrs
Acinetobacter baumannii [8] = experiment: Antibacterial activity against Acinetobacter baumannii ATCC17978 assessed as bactericidal rate by measuring bacterial count at 8 times MIC incubated for 4 hrs by muller-hinton agar based time-kill kinetics assay; assay type: functional, organism-based
Staphylococcus aureus [9] = experiment: Antibacterial activity vancomycin-intermediate resistant Staphylococcus aureus incubated for 16 to 18 hrs by muller hinton broth based microplate reader analysis; assay type: functional; settings: time 16-18 hrs
HEK-293T [10] = experiment: Cytotoxicity against HEK293T cells at 0.5 uM incubated for 72 hrs by MTT assay relative to control; assay type: toxicity, cell-based; settings: human
HEK-293T [11] = experiment: Cytotoxicity against HEK293T cells at 1.0 uM incubated for 72 hrs by MTT assay relative to control; assay type: toxicity, cell-based; settings: human
Acinetobacter baumannii [12] = experiment: Antibacterial activity against Acinetobacter baumannii ATCC17978 assessed as bactericidal rate by measuring bacterial count incubated for 6 hrs by muller-hinton agar based time-kill kinetics assay; assay type: functional, organism-based
Acinetobacter baumannii [13] = experiment: Antibacterial activity against Acinetobacter baumannii ATCC17978 assessed as bactericidal rate by measuring bacterial count at 4 times MIC incubated for 4 hrs by muller-hinton agar based time-kill kinetics assay relative to control; assay type: functional
Acinetobacter baumannii [14] = experiment: Antibacterial activity against Acinetobacter baumannii ATCC17978 incubated for 12 hrs and measured after 20 passages; assay type: functional, organism-based
[15] = Toxicity in Kunming mouse infected with Acinetobacter baumannii ATCC17978 assessed as changed in body weight at 10 to 20 mg/kg; assay type: organism-based; settings: in vivo, dose 10-20 mg/kg
Cell membrane [16] = experiment: Induction of cytoplasmic membrane permeabilization in Acinetobacter baumannii ATCC17978 assessed as increase in fluorescence intensity at 16 times MIC incubated for 10 mins by SYTOX green assay
[17] = Hemolytic activity in sheep RBC at 64 ug/ml incubated for 1 hrs by absorbance based analysis; assay type: toxicity, cell-based, Ovis aries; settings: erythrocyte, dose 64 µg/ml
Acinetobacter baumannii [18] = experiment: Antibacterial activity against Acinetobacter baumannii ATCC17978 infected in neutropenic thigh infection Kunming mouse model assessed as reduction in bacterial load in thigh at 10 to 20 mg/kg, sc pretreated with bacteria for 2 hrs followed by compound addition and measured after 16 hrs; assay type: functional, organism-based; settings: dose 10-20 mg/kg
HEK-293T [19] = experiment: Cytotoxicity against HEK293T cells at 64 ug/ml incubated for 72 hrs by MTT assay; assay type: toxicity, cell-based; settings: human, dose 64 µg/ml
Cell membrane [20] = experiment: Disruption of cell membrane in Acinetobacter baumannii ATCC17978 assessed as increase in protein leakage incubated for 4 hrs by BCA assay
Cell membrane [21] = experiment: Induction of cell membrane disruption in Acinetobacter baumannii ATCC17978 assessed as increase in ROS level incubated for 30 mins by DCFH-DA probe based microplate reader analysis
Cell membrane [22] = experiment: Disruption of cell membrane in Acinetobacter baumannii ATCC17978 assessed as increase in DNA leakage incubated for 4 hrs by microspectrophotometer analysis

Structure (SMILES) | MIC (Escherichia coli [1]) | MIC (Escherichia coli [2]) | MIC (Acinetobacter baumannii [4]) | MIC (Acinetobacter baumannii [5]) | MIC (Staphylococcus aureus [7]) | MIC (Staphylococcus aureus [9]) | also measured
CN[C@H](CC(C)C)C(=O)N[C@H]1C(=O)N[C@@H](CC(N)=O)C(=O)N[C@H]2C(=O)N[C@H]3C(=O)N[C@H](C(=O)N[C@H](C(=O)O)c4cc(O)cc(O)c4-c4cc3ccc4O)[C@H](O)c3ccc(c(Cl)c3)Oc3cc2cc(c3O[C@@H]2O[C@H](CO)[C@@H](O)[C@H](O)[C@H]2O[C@H]2C[C@](C)(N)[C@H](O)[C@H](C)O2)Oc2ccc(cc2Cl)[C@H]1O [VANCOMYCIN] | > 128 µg/mL | > 128 µg/mL | > 128 µg/mL | > 128 µg/mL | – | – | Activity (Acinetobacter baumannii [3]): inactive
O=C(O)c1cn(C2CC2)c2cc(N3CCNCC3)c(F)cc2c1=O [CIPROFLOXACIN] | – | – | 1 µg/mL (≈ 3.02 µM) | 0.5 µg/mL (≈ 1.51 µM) | 0.25 µg/mL (≈ 0.754 µM) | 1 µg/mL (≈ 3.02 µM) | Activity (Acinetobacter baumannii [6]): Active; Activity (Acinetobacter baumannii [8]): Active
COc1cccc2c1C(=O)c1c(O)c3c(c(O)c1C2=O)C[C@@](O)(C(=O)CO)C[C@@H]3O[C@H]1C[C@H](N)[C@H](O)[C@H](C)O1 [DOXORUBICIN] | – | – | – | – | – | – | Activity (HEK-293T [10]): 27.3%; Activity (HEK-293T [11]): 85.6%
CCCCCCCCCCCC[N+]1(C)CCN(C(=O)[C@H]2NC(=O)[C@H]3NC(=O)[C@H](NC(=O)[C@@H]4NC(=O)[C@H](CC(N)=O)NC(=O)[C@H](NC(=O)[C@@H](CC(C)C)NC)[C@H](O)c5ccc(c(Cl)c5)Oc5cc4cc(c5O[C@@H]4O[C@H](CO)[C@@H](O)[C@H](O)[C@H]4O[C@H]4C[C@](C)(N)[C@H](O)[C@H](C)O4)Oc4ccc(cc4Cl)[C@H]3O)c3ccc(O)c(c3)-c3c(O)cc(O)cc32)CC1.[Br-] (stereo in doubt) | 16 µg/mL | 16 µg/mL | 16 µg/mL | 8 µg/mL | 1 µg/mL | 8 µg/mL | Activity (Acinetobacter baumannii [12]): Dose-dependent-effect; Activity (Acinetobacter baumannii [13]): 100%; Activity (Acinetobacter baumannii [14]): Active; Activity [15]: Non-toxic; Activity (Cell membrane [16]): Active; Activity [17]: Toxic; Activity (Acinetobacter baumannii [18]): Active; Activity (Acinetobacter baumannii [8]): inactive; Activity (HEK-293T [19]): Non-toxic; Activity (Cell membrane [20]): Dose-dependent-effect; Activity (Cell membrane [21]): Active; Activity (Cell membrane [22]): Dose-dependent-effect
CCCCCCCCCCCC[n+]1ccc(C(=O)NCCNC(=O)[C@@H]2NC(=O)[C@H]3NC(=O)[C@H](NC(=O)[C@@H]4NC(=O)[C@H](CC(N)=O)NC(=O)[C@H](NC(=O)[C@@H](CC(C)C)NC)[C@H](O)c5ccc(c(Cl)c5)Oc5cc4cc(c5O[C@@H]4O[C@H](CO)[C@@H](O)[C@H](O)[C@H]4O[C@H]4C[C@](C)(N)[C@H](O)[C@H](C)O4)Oc4ccc(cc4Cl)[C@H]3O)c3ccc(O)c(c3)-c3c(O)cc(O)cc32)cc1.[Br-] (stereo in doubt) | > 128 µg/mL | > 128 µg/mL | 16 µg/mL | 64 µg/mL | 2 µg/mL | 64 µg/mL | –
CN[C@H](CC(C)C)C(=O)N[C@H]1C(=O)N[C@@H](CC(N)=O)C(=O)N[C@H]2C(=O)N[C@H]3C(=O)N[C@H](C(=O)N[C@H](C(=O)O)c4cc(O)cc(O)c4-c4cc3ccc4O)[C@H](O)c3ccc(c(Cl)c3)Oc3cc2cc(c3O[C@@H]2O[C@H](CO)[C@@H](O)[C@H](O)[C@H]2O[C@H]2C[C@](C)(NC(=O)CCCCCCCCCCC[n+]3ccc(C)cc3)[C@H](O)[C@H](C)O2)Oc2ccc(cc2Cl)[C@H]1O.[Br-] | > 128 µg/mL | > 128 µg/mL | > 128 µg/mL | > 128 µg/mL | 4 µg/mL | > 128 µg/mL | –
CCCCCCCCCC[N+]1(C)CCN(C(=O)c2ccc(CN[C@@]3(C)C[C@H](O[C@H]4[C@H](Oc5c6cc7cc5Oc5ccc(cc5Cl)[C@@H](O)[C@@H](NC(=O)[C@@H](CC(C)C)NC)C(=O)N[C@@H](CC(N)=O)C(=O)N[C@H]7C(=O)N[C@H]5C(=O)N[C@H](C(=O)N[C@H](C(=O)O)c7cc(O)cc(O)c7-c7cc5ccc7O)[C@H](O)c5ccc(c(Cl)c5)O6)O[C@H](CO)[C@@H](O)[C@@H]4O)O[C@@H](C)[C@H]3O)cc2)CC1.[Br-] | 64 µg/mL | 64 µg/mL | 64 µg/mL | > 128 µg/mL | 1 µg/mL | 64 µg/mL | –
CCCCCCCCCCCC[N+]1(C)CCN(C(=O)c2ccc(CN[C@@]3(C)C[C@H](O[C@H]4[C@H](Oc5c6cc7cc5Oc5ccc(cc5Cl)[C@@H](O)[C@@H](NC(=O)[C@@H](CC(C)C)NC)C(=O)N[C@@H](CC(N)=O)C(=O)N[C@H]7C(=O)N[C@H]5C(=O)N[C@H](C(=O)N[C@H](C(=O)O)c7cc(O)cc(O)c7-c7cc5ccc7O)[C@H](O)c5ccc(c(Cl)c5)O6)O[C@H](CO)[C@@H](O)[C@@H]4O)O[C@@H](C)[C@H]3O)cc2)CC1.[Br-] | > 128 µg/mL | > 128 µg/mL | 16 µg/mL | 32 µg/mL | 2 µg/mL | 64 µg/mL | –
